From patent publication US8609403B2, “Polynucleotide derived from novel hepatitis C virus strain and use thereof” (Tokyo Metropolitan Institute of Medical Science, priority 2009, dated 2013)

What follows are compounds tested on HCV-RMT strain (assay: Evaluation of anti-HCV agents in Huh7 cells maintaining the RMT recombinant virus (triple mutation), HCV amount by real-time PCR). Conditions: Huh7 cells 10 days after introduction of RMT-tri genome; agent added 16 hours after plating, total RNA purified 48 hours later; FIG. 8.
Format: cell-based, hepatitis C virus
Method: E1202G or the 3 acclimation mutations (E1202G, E1056V and A2199T) was/were introduced to pRMTx, and the obtained vectors were designated pRMTx-E1202G and pRMTx-tri, respectively. From pRMTx, pRMTx-E1202G and pRMTx-tri, viral genomic RNAs were prepared (RMT, RMT-E1202G and RMT-tri, respectively), and 30 μg each of the prepared genomic RNAs were introduced to Huh7 cells by electroporation. The cells were plated on a culture dish and subcultured 3 to 4 times per week, during which the cell were sampled. From the sampled cells, total RNA was purified by the AGPC method, and the copy number of the HCV genome per 1 μg of the total RNA was quantified according to a conventional method (Takeuchi et al., Gastroenterology, 1999) by reverse transcription real-time PCR using QuantiTect Multiplex PCR kit (manufactured by Qiagen). Daily changes in the copy number of the HCV genome in the cells to which RMT-RNA, RMT-E1202G-RNA and RMT-tri-RNA were respectively introduced are shown in FIG. 7.
Further, 10 days after the introduction of the genome, the cells in the state where the HCV genome was maintained were plated on a 96-well plate, and an agent was added thereto 16 hours later, followed by purification of total RNA 48 hours later from each well using ABI prizm 6100 and a purification kit (manufactured by Applied Biosystems). The HCV amount in the RNA, which was obtained by the above real-time PCR, and the total RNA amount quantified using an absorption spectrophotometer are shown in FIG. 8. As anti-HCV agents, an HCV polymerase inhibitor (MK0608), HCV protease inhibitor (BILN2061), IFN-α and cyclophilin inhibitor (cyclosporin A) were used.
With `COc1ccc2c(O[C@@H]3C[C@H]4C(=O)N[C@]5(C(=O)O)C[C@H]5/C=C\CCCCC[C@H](NC(=O)OC5CCCC5)C(=O)N4C3)cc(-c3csc(NC(C)C)n3)nc2c1` [BILN2061] the “growth inhibition capacities against HCV” value was “almost the same as those described in documents”.
In the case of `C[C@@]1(O)[C@H](O)[C@@H](CO)O[C@H]1n1ccc2c(N)ncnc21` [MK0608], the “growth inhibition capacities against HCV” value was “almost the same as those described in documents”.
For IFN-α, the “growth inhibition capacities against HCV” value was “almost the same as those described in documents”.
